For one experiment, the system named is APC (substrate HURP). The experiment can be described thus: APC substrate westerns, Tamoxifen resistant MCF7 cells. The format is cell-based, human. How it is done:
(§1) Parental MCF7 human breast cancer cells, or cells selected for resistance to Tamoxifen, were treated with 1 or 5 uM M2I-1. Tamoxifen resistant cells were also treated with both DOX and M2I-1. Cell viability was measured using Trypan Blue staining (3 rpts). B. Protein lysates were prepared from the cells used in A. The APC target HURP was measured using antibodies against HURP. C. Trypan Blue was used to measure viability of parental and DOX resistant OSW canine lymphoma cells pretreated with 1 or 5 μM M2I-1 (18 hrs), followed by 1 μM DOX (48 hrs). Parental cells were only treated with monotherapy (3 rpts). ND, no data. D. OSW matched cells treated with the APC activator M2I-1 were prepared for APC substrate westerns E. Quantification of western protein abundance (3 rpts).
(§2) Human MCF7 breast cancer cells selected for resistance to Tamoxifen were treated with the M2I-1 activator in culture.

Experiment [1] relates to OSW dog lymphoma cells selected for chemotherapeutic resistance. The experiment can be described thus: Cell viability by Trypan Blue, DOX resistant OSW cells. The format is cell-based, canine. To be noted: 1 or 5 μM 18 hrs then 1 μM DOX 48 hrs. How it is done: as §1, §2
The test system of another experiment is MDA-MB-231 cells. As to the kind of experiment: Scratch assay, migration of MDA-MB-231 cells. The format is cell-based, human. How it is done: A. An equal number of MDA-MB-231 TNBC cells were grown to confluence in 6 well plates. The cells were then treated with increasing doses of metformin (0, 1, 5 and 10 mM) and a scratch was made in the cell lawn creating a void. At the times shown the number of cell that migrated into the void were counted. The experiment was repeated twice. B. WT MDA-MB-231 cells and cells stably expressing the C43-4 plasmid were grown as in A. Control cells were left untreated, with other cells treated with the DMSO control, 1 uM DOX or 2.5 uM M2I-1. A void was created in the cell lawn and the number of cells that entered the void were scored as above. This experiment was repeated 4 times. This experiment was also repeated 4 times in an independently generated stable C43-4 cell line with similar results. The error of the mean is shown. C. WT and MDA-MB-231 cells stably expressing the C2-4B peptide plasmid were used for the scratch assay as described above. D. WT and MDA-MB-231 cells stably expressing the C13-3 peptide plasmid were used for the scratch assay as described above. The experiments in C and D were only performed once.
Assays using WT and C43-4 expressing cells have been done 4 times. Assays using C13-3 and C2-4B cells have only been conducted once. Metformin treated cells have been used twice. For scratch assays, a scratch is made down a confluent plate of cells, leaving a void. The number of cells that migrate back into the void over time is determined.

In experiment [2] the test system is patient derived xenografted (PDX) tumor. As to the kind of experiment: Patient derived xenograft (4-28 PDX) triple negative breast cancer mouse model. The experiment is classed as in vivo. From the text: A. In vivo study of M2I-1 impact on a human patient derived xenografted breast tumor (4-28 PDX). An increased dose of M2I-1 was given to mice harboring implanted 4-28 tumor fragments ([…] i.p. injection (treatment) versus mock (DMSO) day 1, with tumor size measured every other day. B. Western analysis of apoptosis (PARP cleavage—24 kDa band) and APC substrate abundance (Cyclin B) in liver and tumor of treated and control after sacrifice on Day 8.
(§3) A mouse model for growing patient derived breast tumor cells obtained from a patient with triple negative breast cancer was developed. This patient had developed resistance to Doxorubicin. Tumors growing in these mice grow rapidly. Mice growing the patient derived xenografted (PDX) tumor were injected with various amounts of M2I-1. […] Since the APC was activated in the canines tested in this study following treatment with metformin, it was asked if metformin can directly activate the APC. Reduced APC substrate Cyclin B levels following metformin treatment in human MCF7 breast cancer cells was observed, similar to that observed when MDF7 cells express the C43-4 plasmid (see below for more on this plasmid) (FIG. 21).

The test system of experiment [3] is MCF7 breast cancer cells selected for resistance to Tamoxifen. The experiment can be described thus: Cell viability by Trypan Blue, Tamoxifen resistant MCF7 cells. The format is cell-based, human. How it is done: as §1, §2
In another experiment the test system is APC (substrate Cyclin B). The experiment can be described thus: Cyclin B protein levels in MCF7 cells. The experiment is classed as cell-based, human. As to conditions: MCF7, 48 hrs; 1 mM metformin or transient transfection of peptide plasmid. How it is done:
MCF7 breast cancer cells were treated with 1 mM metformin or transiently transfected with an APC activating peptide (C43-4) for 48 hrs, then harvested for assessment of Cyclin B protein levels. Cyclin B is an APC target.
as §3

The next experiment relates to drug resistant lymphoma. The experiment can be described thus: Canine model of drug resistant lymphoma, metformin adjunct therapy. The experiment is classed as in vivo. How it is done:
Enrolled companion canines that presented to the Western College of Veterinary Medicine in Saskatoon with lymphoma that had failed CHOP therapy were enrolled in the study. Canine lymphoma is very common, almost always results in a drug resistant form, and is treated identically in humans and canines.
Each week tumor tissue was received to use for western determination of MDR markers and RNA microarrays.
One canine (canine 6) entered remission after failing all other treatment options. RNA was sampled from the MDR tumor, during metformin treatment, during tumor shrinkage and remission and during relapse and microarray analysis was performed.

Experiment [4] concerns multiple drug resistant breast cancer. To be noted: cited from earlier work.
A further experiment concerns wild type (WT) cells. The experiment can be described thus: C43-4 mutant peptides, spot dilution under temperature and UV stress, WT cells. The format is cell-based, yeast. To be noted: low level expression on glucose. How it is done: The cells were exposed to 5 sec of UV from a UV box prior to incubation. The plus signs define growth compared to the empty vector control.
Residues 2, 7, 8, 10, 12 and 14 of peptide C43-4 are conserved with Htz1. All of these residues were mutated to alanine (FIG. 10). Peptides that contained mutations designed to determine which amino acids were required for function were generated. These mutant peptides were grown in wild type cells and in cells that had APC10 mutated, under temperature and UV stress conditions (FIGS. 10-12).
These cells were spot diluted on Trp^− plates and grown at the temperatures shown and/or exposed to ultraviolet (UV) irradiation (FIGS. 10-12). At low level expression on glucose, some of the mutations caused stress dependent phenotypes.
• 1. Cells were cultured overnight in Trp^− 2% glucose media • 2. The growth of the cells was determined by measuring the optical density (OD) of the cells at 600 nm (OD600) • 3. Cells were diluted to OD600 of 1 with fresh culture media • 4. 100 ul of each culture was pipetted into a well of a 96 well plate • 5. 10 ul of the each starting culture was pipetted into 90 ul of water in 4 additional wells to make a 10-fold serial spot dilution • 6. 5 ul from each serial dilution was spotted onto plates containing standard growth media with either 2% glucose or 2% galactose using a multi-pipettor • 7. The plates were exposed to UV • 8. […]

Another experiment relates to apc10Δ cells. The experiment can be described thus: C43-4 mutant peptides, spot dilution under temperature and UV stress, apc10Δ cells. The format is cell-based, yeast. To be noted: glucose or galactose. How it is done: The cells were exposed to 5 sec of UV from a UV box prior to incubation.
Expression of the WT and mutant peptides have reduced activity in apc10Δ cells (FIG. 12).
• 1. Cells were cultured overnight in Trp^− 2% glucose media • 2. The growth of the cells was determined by measuring the optical density (OD) of the cells at 600 nm (OD600) • 3. Cells were diluted to OD600 of 1 with fresh culture media • 4. 100 ul of each culture was pipetted into a well of a 96 well plate • 5. 10 ul of the each starting culture was pipetted into 90 ul of water in 4 additional wells to make a 10-fold serial spot dilution • 6. 5 ul from each serial dilution was spotted onto plates containing standard growth media with either 2% glucose or 2% galactose using a multi-pipettor • 7. The plates were exposed to UV • 8. The plates were then placed at room temperature, 30, or 37° C. for 3-7 days • 9. The plates were scanned and saved as tiff files

The target of a further experiment is T1, Apc10 (Saccharomyces cerevisiae, UniProt P53068).
T1 construct: expressed in transfected cells; host or cells: yeast Y2H cells
T1 sequence (P53068 1-250): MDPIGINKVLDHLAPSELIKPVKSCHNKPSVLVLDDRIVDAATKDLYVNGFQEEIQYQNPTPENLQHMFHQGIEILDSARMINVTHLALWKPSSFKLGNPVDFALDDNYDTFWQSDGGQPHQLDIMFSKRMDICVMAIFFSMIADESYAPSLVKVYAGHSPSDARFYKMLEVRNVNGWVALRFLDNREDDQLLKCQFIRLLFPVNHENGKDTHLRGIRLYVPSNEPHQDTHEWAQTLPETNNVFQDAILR
As to the kind of experiment: Yeast 2-hybrid (Y2H) assay, Apc10 bait. The experiment is classed as binding. How it is done:
The reverse genetic screen utilized a yeast 2-hybrid (Y2H) protocol that selected for peptides that bound to the APC subunits Apc5 or Apc10 (see FIG. 8 for APC structure), to assess whether peptide-binding might modify APC function. Peptides that bound APC subunits were then assayed for those that suppressed APC mutant defects.
A library of random small peptides were cloned into a Thioredoxin (Trx) scaffold (see FIG. 9 for Trx-peptide structure) and expressed from a galactose-inducible Y2H prey vector in cells expressing the Apc10 bait vector (the modified Apc10 is still part of the complete APC complex). Six peptides that reproducibly interacted with the Apc10 bait construct in Y2H assays were identified (FIG. 1A) and were examined further. Cells will only grow in this assay if the peptide interacts with Apc5 or Apc10.
To identify peptides that bound to either Apc5 or Apc10 proteins using a yeast 2-hybrid (Y2H) screen, random small peptides were cloned into the TrxA scaffold (library provided by R. Geyer; FIG. 9) and expressed from a galactose-inducible Y2H prey vector in cells harboring either the APC5 or APC10 genes cloned into the Y2H bait vectors (APC5/APC10 bait constructs complement APC mutant defects).
Over 100 peptides that bound either Apc5 or Apc10 were recovered from millions screened. Six peptides that reproducibly interacted with the Apc5 or Apc10 bait construct in Y2H assays were examined further. Vectors expressing these 6 peptides were transformed into WT or APC mutant cells and assessed for ts growth.

“Also recorded” adds a separate entry of the source.

This is an account of results in US11851459B2, “Methods and uses of modulators of anaphase promoting complex (APC) activity for treating cancer” (University of Saskatchewan, priority 2018, dated 2023).

For `CC(C)CN(CC(C)C)c1ccc(C=C2C(=O)NC(=S)NC2=O)cc1[N+](=O)[O-]` [M2I-1, Mad2 Inhibitor-1], the “levels of APC substrates” value in the experiment on APC (substrate HURP) is given as “reduced the levels of several APC substrates tested”. The “cell killing by chemotherapy only in presence of activator” value in experiment [1] is recorded as “observed”. Also, the “metastatic potential / in vitro migration” value in the experiment on MDA-MB-231 cells is “inhibit the in vitro migration”. The tumor growth entry in experiment [2] (PDX TNBC in mice, i.p. injection, various amounts) is “stalled in these cells in a dose-dependent manner”. Besides, in experiment [2] (western, Cyclin B, Day 8), the “markers of APC substrates in the tumor” value is given as “positive for APC activation”. Further, in experiment [3] (Tamoxifen resistant MCF7), the “cell killing / toxicity in combination with chemotherapy (DOX)” value is recorded as “only in the presence of M2I-1 were cells killed; also recorded: enhances toxicity”. In addition, in [3] (Tamoxifen resistant MCF7, 1 or 5 uM, 18 hrs), the “growth / toxicity of activator alone” value was “did not impair the growth; also recorded: not toxic”.
As to `CN(C)C(=N)N=C(N)N` [metformin], in the experiment on APC (substrate Cyclin B), the “APC substrate Cyclin B protein levels” value is “Reduced”. Also, the “APC substrate RNA levels” value in the experiment on drug resistant lymphoma (canine 6, microarray) is listed as “reduced APC substrate RNA levels”. Besides, the “markers of multiple drug resistance” value with drug resistant lymphoma (canine tumor tissue, westerns) is given as “reverse markers of multiple drug resistance”. Also, in the experiment with drug resistant lymphoma (one canine (canine 6)), the remission result is reported as “induced remission”. The “metastatic potential / in vitro migration” value with MDA-MB-231 cells is “blocked”. Also, in [4], the “multiple drug resistant breast cancer in vitro” value is “prevents and reverses”.
For the compound “NGSSHNDARVRRLTLISRLC [C43-4-3, alanine at position 8 of C43-4]”, in the experiment with wild type (WT) cells, the “stress resistance (growth compared to empty vector)” value was “increased stress resistance further”. Besides, the “activity / toxicity of peptide in apc10Δ cells” value in the experiment on apc10Δ cells is reported as “remained toxic”. In addition, the “binds Apc10 in a yeast 2 hybrid assay” value with Apc10 was “binds Apc10”.
